Results as given in patent US4908364A, “Substituted 3-phenyl-7H-thiazol[3,2-b][1,2,4]-triazin-7-ones” (Hoechst Aktiengesellschaft, priority 1987, dated 1990).
Like-named read-outs stand apart in the source and are kept apart here.

How the values were obtained:
Adjuvant arthritis = Adjuvant arthritis (paw volume increase); format: in vivo, male rats of a Wistar-Lewis strain; conditions: for ED50: Rattus norvegicus, po, read-out: ED50 in adjuvant arthritis; for Adjuvant arthritis (% inhibition at 50 mg/kg p.o.): rat, 50 mg/kg p.o. once daily, day 1 to day 5, reduction in increase in paw volume vs control
Experimental: The investigations were carried out by the method of Pearson (Arthrit. Rheum. 2 (1959) p. 44). The experimental animals used were male rats of a Wistar-Lewis strain having a body weight between 130 and 200 g. The compounds to be tested were administered orally (p.o.) once daily from day 1 to day 5 of the experiment in doses of 50 mg per kg of body weight. The animals of a control group received only the vehicle. Each preparation and control group comprised 8 animals. The criterion used to determine an action was the percentage reduction in the increase in paw volume compared to that of the untreated control group.

[1] = Acute gastral ulcerogenity; design: species or system male Sprague-Dawley rats; conditions: rat, in vivo, po
Experimental: The investigation took place in each case on 10 male Sprague-Dawley rats in which the gastric mucous membrane had been sensitized by hunger stress. The body weight of the animals was between 200 and 300 g. While allowing free access to the drinking water, the feed was withdrawn 48 hours before administration of the test preparations until sacrifice of the animals. The rats were sacrificed 24 hours after oral administration of the substance, and the stomachs were removed, cleaned under running water and inspected for mucous membrane lesions. All macroscopically visible lesions were regarded as ulcers. The number of animals having ulcers was determined for each dose, and the UD50 values, i.e. the doses at which lesions were caused in 50% of the animals, were calculated from this number by the method of Litchfield and Wilcoxon (J. Pharmacol. Exp. Ther. 96 (1949) p. 99).

in vivo = conditions: mouse, ip; for LD50 at 168 h: read-out: Acute toxicity LD50
Experimental: The LD50 values were determined by a standard method from the mortality occurring within 7 days in NMRI (Naval Medical Research Institute) mice (6 animals per dose) after a single intraperitoneal (i.p.) administration.

lymphocytes [2] = assay: Stimulation of suppressed immune response of lymphocytes towards mitogens in adjuvant arthritis; format: in vivo, rat; conditions: oral, Example 1 at 3.15 and 6.3 mg/kg, naproxen in doses up to 25 mg/kg
[3] = tested on: Arthritis induced by type II collagen; assay: Arthritis induced by type II collagen (paw volume); format: in vivo, male Wistar rats; conditions: for inhibition of the increase in paw volume, collagen arthritis: oral once daily, 20-day treatment, naproxen at the same dosage
Experimental: (§1) In this experiment, arthritis was induced in male Wistar rats using type II collagen, which was obtained by standard methods of Miller and Rhodes (Meth. Enzymol. 82 (1982) p. 33) from the nasal septum of the calf and, mixed with Freund's incomplete adjuvant, was injected intradermally into the animals. This immunization process was repeated 7 days later. 20 days after the initial immunization, the affected rats were divided into groups each comprising 7 animals, which received the particular test substance or the pure vehicle (control group) orally once daily in the subsequent 20-day treatment phase. On day 41 of the experiment, i.e. one day after the final administration of substance, the increase in volume of both rear paws was determined.

lymphocytes [4] = assay: Immune activity of spleen lymphocytes towards mitogens in collagen arthritis; format: in vivo, male Wistar rats; conditions: Example 1: 12 mg/kg p.o.
Experimental: as §1
The immune status of lymphocytes is also disturbed sensitively in this model of collagen arthritis.

[5] = tested on: Adriamycin-induced inflammation; assay: Adriamycin-induced inflammation; format: in vivo, male Sprague-Dawley rats; conditions: for Increase in paw volume: 72 hours, control 430; for Protective action in %: * significance p < 0.05; for protective effect against tissue destruction induced by Adriamycin: oral
Excerpt: According to current opinion, aggressive oxygen radicals, which are formed to excess during the chronic inflammation process and, as highly toxic inflammation mediators themselves, perpetually maintain the connective tissue destruction which proceeds via an irreversible lipid peroxidation of the cell membranes, are permanently involved in the progressive course, caused by a multitude of factors, of rheumatoid arthritis and other inflammatory disorders. As a result, antioxidatively active pharmaceuticals having the ability to deactivate these extremely cytotoxic oxygen radicals should permit specific engagement in the chronic course of the inflammation. A suitable animal model for this type of tissue destruction caused by oxygen radicals is Adriamycin (doxorubicin) induced inflammation in rats. The investigations were carried out by the method of D. M. Siegel et al. (Inflammation 4 (1980) p. 233) on male Sprague-Dawley rats having a body weight between 200 and 230 g in groups of 7 animals each, which received 0.1 mg of Adriamycin, dissolved in 0.1 ml of a 0.9% strength sodium chloride solution, by subcutaneous injection into the left rear paw. The increase in paw volume was determined by plethysmographic measurement 72 hours thereafter as a measure of the degree of inflammation. The test preparations were administered orally in 1% strength aqueous carboxymethylcellulose suspension once daily on 4 successive days, starting with the day of Adriamycin injection.

[6] = tested on: microsomal lipid peroxidation; assay: In-vitro inhibition of lipid peroxidation, microsomes (thiobarbituric acid test); format: biochemical; conditions: microsomes from the rat liver
Excerpt: (§2) Further convincing evidence of the pronounced protective action of the compounds according to the invention against aggressive oxygen radicals is provided by the thiobarbituric acid test of A. Ottolenghi (Arch. Biochem. Biophys. 79 (1959) pp. 355-363). Using this in-vitro method, the affect on microsomal and mitochondrial lipid peroxidation by antioxidatively active preparations can be determined from the malonodialdehyde produced on oxidative degredation of membrane-bound, polyunsaturated fatty acids.
(§3) Here too, the compounds of the formula I exerted a strong inhibitory action.

[7] = tested on: mitochondrial lipid peroxidation; assay: In-vitro inhibition of lipid peroxidation, mitochondria (thiobarbituric acid test); format: biochemical; conditions: mitochondria from the rat liver
Excerpt: as §2, §3

5-lipoxygenase = assay: Inhibition of 5-lipoxygenase in isolated polymorphonuclear granulocytes; format: cell-based, human; conditions: concentration range between 10^-5 and 10^-6 mol/l, pre-incubation 15 minutes
Experimental: The inhibitory action of the compounds according to the invention on 5-lipoxygenase-catalysed degredation of arachidonic acid was investigated,as usual, in in-vitro experiments on isolated polymorphonuclear human granulocytes. To this purpose, cells stimulated by calcium ionophor A 23 187 (Calbiochem GmbH, Frankfurt/Main, FRG, Biochemical and Immunochemical Catalog 1985, p. 284) were incubated with ^14 C-labeled arachidonic acid, and the major radioactive degredation products of arachidonic acid, 5-hydroxyeicosatetraenoic acid (5-HETE) and leukotriene […] (LTB4), which has a particularly strong proinflammatory action, formed after 15 minutes at 37° C. by biotransformation were determined quantitatively with the aid of a radio monitor after separation by high-pressure liquid chromatography (HPLC).

Arthus reaction = assay: Active Arthus reaction; format: in vivo, female and male Sprague-Dawley rats; conditions: oral
Experimental: The experimental animals used were female and male Sprague-Dawley rats having a body weight between 80 and 100 g; they were injected subcutaneously into the tail root with 0.5 ml of an emulsion of pertussis vaccine and ovalbumin in paraffin oil. After two weeks, the rats were divided into groups of 8 animals each. The respective test substance or the pure vehicle (positive control) were administered orally 24 hours and one hour before induction of the Arthus reaction by injecting 0.1 ml of a 0.4% strength ovalbumin solution into the right rear paw. Sodium chloride solution was injected into the left paw. A group of non-sensitized animals (negative control) was likewise treated with ovalbumin in order to be able to exclude non-specific reactions to the protein. The measurement parameter used for the action of the preparation was the inhibition of the increase in paw volume compared to that of a sensitized, but untreated control group (positive control) 4 hours after ovalbumin provocation, when the swelling reaches its maximum.

[8] = NMRI mice, single i.p. administration, mortality within 7 days

Row | Structure (SMILES) | ED50 (Adjuvant arthritis) | Adjuvant arthritis (% inhibition at 50 mg/kg p.o.) (Adjuvant arthritis) | TD50 at 24 h [1] | LD50 at 168 h (in vivo; [8]) | normalization of the immune reactivity of lymphocytes towards mitogens (lymphocytes [2]) | inhibition of the increase in paw volume, collagen arthritis [3] | effect on immune function of lymphocytes in collagen arthritis (lymphocytes [4]) | protective effect against tissue destruction induced by Adriamycin [5] | LD50 at 168 h (in vivo) | further results
1 | CC(C)(C)c1cc(-c2csc3nc(=O)cnn23)cc(C(C)(C)C)c1O [Example 1, 3-(3,5-Di-tert.butyl-4-hydroxyphenyl)-7H-thiazolo[3,2-b][1,2,4]triazin-7-one] | 10.9 mg/kg | 67% | > 400 mg/kg | > 1200 mg/kg | substantial normalization of the immune reactivity | dose-dependent inhibition of the increase in paw volume | completely normalized the immune function of both T and B lymphocytes | strong, dose-dependent protective effect | – | selectivity ratio [1]: > 36.7; selectivity ratio (in vivo; LD50 (mice i.p.) / ED50 (adjuvant arthritis), read-out: therapeutic range, quotient LD50/ED50): > 110; minimal effective dose ([3]; Rattus norvegicus, po, collagen arthritis, p.o., read-out: dose from which inhibition of the increase in paw volume was statistically significant): ≥ 25 mg/kg; Increase in paw volume ([5]; 20 mg/kg p.o.): 220 µL; Protective action in % ([5]; 20 mg/kg p.o.): 49%; Increase in paw volume ([5]; 40 mg/kg p.o.): 200 µL; Protective action in % ([5]; 40 mg/kg p.o.): 54%; Increase in paw volume ([5]; 80 mg/kg p.o.): 10 µL; Protective action in % ([5]; 80 mg/kg p.o.): 98%; IC50 [6]: 0.6 µM; IC50 [7]: 3 µM; inhibition of formation of 5-HETE (5-lipoxygenase): significantly inhibited; inhibition of formation of LTB4 (5-lipoxygenase): significantly inhibited
2 | Cc1cc(-c2csc3nc(=O)cnn23)cc(C(C)(C)C)c1O [Example 2, 3-(3-Tert.butyl-5-methyl-4-hydroxyphenyl)-7H-thiazolo[3,2-b][1,2,4]triazin-7-one] | – | 41% | > 400 mg/kg | > 1200 mg/kg | – | – | – | – | – | –
3 | CC(C)(C)c1cc(-c2csc3nc(=O)c(CO)nn23)cc(C(C)(C)C)c1O [Example 3, 3-(3,5-Di-tert.butyl-4-hydroxyphenyl)-6-hydroxymethyl-7H-thiazolo[3,2-b][1,2,4]triazin-7-one] | – | 41% | > 200 mg/kg | > 1200 mg/kg | – | – | – | – | – | –
4 | Cc1nn2c(-c3cc(C(C)(C)C)c(O)c(C(C)(C)C)c3)csc2nc1=O [Example 6] | – | 50% | > 200 mg/kg | – | – | – | – | – | > 1200 mg/kg | –
5 | CCCc1nn2c(-c3cc(C(C)(C)C)c(O)c(C(C)(C)C)c3)csc2nc1=O [Example 9] | – | 45% | > 200 mg/kg | – | – | – | – | – | > 1200 mg/kg | –
6 | COc1ccc2cc(C(C)C(=O)O)ccc2c1 (stereo not shown) [Naproxen, 2-(6-methoxy-2-naphthyl)-propionic acid, reference compound] | 17.5 mg/kg | 55% | – | – | ineffective | only non-significant inhibition values | no effect | ineffective | – | effect on Arthus reaction (Arthus reaction): ineffective
